Data taken from patent publication US6858648B2, “Laetispicine and laetispicine analogues, methods of use and preparation” (Fudan University, priority 2002, dated 2005).

Columns and labels:
mouse [1] = experiment: Mouse acetic acid squirming method; format: in vivo; settings: for Squirming X ± SE: dose 20 mg/kg, 1 hour before 0.2 ml 1% acetic acid into abdominal cavity, squirmings counted over 10 minutes, male mice; for inflammation and pain relieving effect compared with aspirin: 20 mg/kg each, mouse acetic acid squirming
Text: The pain and inflammation relieving effect of Laetispicine has been studied by the mouse acetic acid squirming method. In this study, 30 male mice were selected; each of them weighed 20 grams. These mice were divided randomly into 3 groups: Laetispicine group (10 mice), aspirin group (10 mice), and control group (10 mice). Laetispicine of 20 milligram/kilogram body weight in vehicle solution was given to each of the ten mice in Laetispicine group. For a positive control, aspirin of 20 milligram/kilogram body weight in vehicle solution was given to each of the ten mice in aspirin group. Vehicle solution only was given to ten mice in control group (negative control group). One hour later, each mouse was given 0.2 milliliter of 1% acetic acid solution by injection to its abdominal cavity. After the mouse squirmed first time, every squirming of each of the mouse was counted in a period of 10 minutes.

mouse [2] = experiment: Mouse forced swimming experiment; format: in vivo; settings: for Motionless Time (sec.) X ± SE: 1 hour after dosing, recorded over 4 minutes after 2 minutes adaptation, 10 mice per group; for anti-depression effect compared with Fluoxetine (Prozac): mouse forced swimming, relative to Fluoxetine
Text: Mouse forced swimming experiment is by far the best animal model to screen anti-depression drugs. The experiment is designed to create a despaired situation for a mouse by confining the mouse in a container filled with water. Mouse in water will swim to safety. When the mouse cannot find a way out after it tried in the water in the container, it despaired of swimming. There is psychological difference of different mice in the situation. A calm mouse is still swimming and trying to find a way out of the container, while a despaired mouse swims relatively less (moves less). A depressed mouse despairs easily. The more depressed the mouse, the severer the despair.
In this experiment, sixty mice were divided into 6 groups (10 mice in each group). (Referring to Table 1 and FIG. 2) Each mouse in experiment group 1 (Laetispicine 1) was given Laetispicine 50 milligram/kilogram body weight, each mouse in experiment group 2 (Laetispicine 2) was given Laetispicine 20 milligram/kilogram body weight, each mouse in experiment group 3 (Laetispicine 3) was given Laetispicine 10 milligram/kilogram body weight and each mouse in experiment group 4 (Laetispicine 4) was given Laetispicine 5 milligram/kilogram body weight. Fluoxetine (Prozac) was given 50 milligram/kilogram body weight to each mouse of positive control group (Fluoxetine), and placebo was given to each mouse of negative control group.
After receiving the drugs (or placebo) 1 hour later, mice were put into a glass container with a long and narrow opening. The dimension of the container is 30 cm height, filled with water to 15 cm deep.

Row | Structure (SMILES) | Squirming X ± SE (mouse [1]) | Motionless Time (sec.) X ± SE (mouse [2]; dose 50 mg/kg) [s] | effect on mouse depression (in words) (mouse [2]; Table 1 and FIG. 2, 5-50 mg/kg) | Motionless Time (sec.) X ± SE (mouse [2]; dose 5 mg/kg) [s] | Motionless Time (sec.) X ± SE (mouse [2]; dose 10 mg/kg) [s] | Motionless Time (sec.) X ± SE (mouse [2]; dose 20 mg/kg) [s] | anti-depression effect compared with Fluoxetine (Prozac) (mouse [2]) | anti-depression effect compared with Fluoxetine (Prozac) (mouse [2]; listed as Lactispicine) [times] | inflammation and pain relieving effect compared with aspirin (mouse [1]) | inflammation and pain relieving effect compared with aspirin (mouse [1]; listed as Lactispicine)
1 | CC(=O)Oc1ccccc1C(=O)O [Aspirin, reference compound] | 16.8 ± 3.43 |  |  |  |  |  |  |  |  | 
2 | CNCCC(Oc1ccc(C(F)(F)F)cc1)c1ccccc1 (stereo not drawn) [Fluoxetine, reference compound] |  | 113.44 ± 10.10 |  |  |  |  |  |  |  | 
3 | CC(C)CNC(=O)/C=C/C=C/CCC/C=C/Cc1ccc2c(c1)OCO2 [Laetispicine, N-isobutyl-11-(3,4-methylendioxyphenyl)-2E,4E,9E-undecatrienamide] | 16.7 ± 4.92 | 17.67 ± 5.33 | significantly reduced the mouse depression | 158.78 ± 5.13 | 131.0 ± 8.86 | 50.11 ± 12.69 | five times effective than that of Prozac | 5 | equivalent to that of aspirin | equivalent to the effect of Aspirin
